# Laboratory results from patent publication US11459323B2, “Monocyclic β-lactam compound for treating bacterial infection” (MEDSHINE DISCOVERY INC., priority 2018, dated 2022).
# Where two headings read alike, the source gives them in different places.
# Columns and labels:
# [1] = tested on: Acinetobacter baumannii C312; experiment: MIC on clinically isolated bacteria; type: cell-based
# Excerpt: (§1) Twenty-five strains of clinically isolated Acinetobacter baumannii and twenty-seven strains of Pseudomonas aeruginosa were respectively selected and used to determine the minimum inhibitory concentration (MIC) of the compounds by micro-liquid dilution method according to the Institute of Clinical and Laboratory Standard (CLSI) requirements.
# [2] = tested on: Acinetobacter baumannii C315; experiment: MIC on clinically isolated bacteria; type: cell-based
# Excerpt: as §1
# [3] = tested on: Acinetobacter baumannii C330; experiment: MIC on clinically isolated bacteria; type: cell-based
# Excerpt: as §1
# [4] = tested on: Acinetobacter baumannii C403; experiment: MIC on clinically isolated bacteria; type: cell-based
# Excerpt: as §1
# [5] = tested on: Pseudomonas aeruginosa M4; experiment: MIC on clinically isolated bacteria; type: cell-based
# Excerpt: as §1
# [6] = tested on: Pseudomonas aeruginosa W24; experiment: MIC on clinically isolated bacteria; type: cell-based
# Excerpt: as §1
# [7] = tested on: Pseudomonas aeruginosa W27; experiment: MIC on clinically isolated bacteria; type: cell-based
# Excerpt: as §1
# [8] = tested on: Pseudomonas aeruginosa W28; experiment: MIC on clinically isolated bacteria; type: cell-based
# Excerpt: as §1
# [9] = tested on: Pseudomonas aeruginosa W29; experiment: MIC on clinically isolated bacteria; type: cell-based
# Excerpt: as §1
# [10] = tested on: Pseudomonas aeruginosa W42; experiment: MIC on clinically isolated bacteria; type: cell-based
# Excerpt: as §1
# [11] = tested on: Pseudomonas aeruginosa W47; experiment: MIC on clinically isolated bacteria; type: cell-based
# Excerpt: as §1
# [12] = tested on: Pseudomonas aeruginosa W6; experiment: MIC on clinically isolated bacteria; type: cell-based
# Excerpt: as §1
# [13] = tested on: Pseudomonas aeruginosa PA14; experiment: Lungs of immunosuppressed mice infected with Pseudomonas aeruginosa (2), lung bacterial load; type: in vivo; settings: 24 hours after infection, day, ip at 2 h, 4 h, 6 h, 8 h
# Experimental: Pseudomonas aeruginosa PA14. 60 mice were intraperitoneally injected with 150 mg/kg cyclophosphamide on day 1 and day 4 to give immunosuppressed mice. […] [table] The mice were injected with 50 μL of bacterial solution (2×10^3 CFU) through the airway. 2 hours after the infection, 4 mice in the model group was sacrificed by removing cervical vertebra. Two hours after infection, the drugs were administered by groups, and the mice were administered intraperitoneally once at 2 hours, 4 hours, 6 hours, and 8 hours, a total of 4 times. Mice of each group were sacrificed by removing cervical vertebra 24 hours after infection, lung and kidney tissues were taken aseptically and put into a sterilized tissue homogenate tube, weighed, and an appropriate amount of normal saline (NS) was added, the mixture was homogenized by a homogenizer for 1 min, the lung tissues of the model group were diluted 10^4, 10^5, 10^6 times, the lung tissues of each administration group were diluted 10, 100 times, the kidney tissues of the model group were diluted 10^2, 10^3, 10^4 times, and the lung tissues of each administration group were diluted 10 times, the obtained mixtures were coated on TSA plates using spiral coater, then incubated at 37° C. overnight, and the CFU was counted with a colony counter. Graphpad Prism mapping software was used to make scatter plots of lung tissue CFU. SPSS19.0 software was used to count CFU and average body weight, and analysis of variance was used to analyze differences between groups.
# P. aeruginosa ATCC 35151 = experiment: MIC by micro-liquid dilution method (CLSI); type: cell-based; settings: Pseudomonas aeruginosa, ATCC35151
# E. coli ATCC 25922 = experiment: MIC by micro-liquid dilution method (CLSI); type: cell-based; settings: Escherichia coli, ATCC25922
# [14] = tested on: Acinetobacter baumannii ATCC 17978; experiment: MIC on Acinetobacter baumannii strains; type: cell-based; settings: ATCC17978
# Excerpt: (§2) Twelve strains of Acinetobacter baumannii, A. baumannii ATCC 17978 (ATCC-BAA-1605, ATCC-BAA-1789, ATCC-BAA-1790, ATCC-BAA-1791, ATCC-BAA-1792, ATCC-BAA-1793, ATCC-BAA-1794, ATCC-BAA-1795, ATCC-BAA-1799, ATCC-BAA-1800, ATCC 19606, ATCC 17978) were used to determine the minimum inhibitory concentration (MIC) of the compounds by micro-liquid dilution method according to the Institute of Clinical and Laboratory Standard (CLSI) requirements.
# [15] = tested on: Acinetobacter baumannii ATCC 19606; experiment: MIC on Acinetobacter baumannii strains; type: cell-based; settings: ATCC19606
# Excerpt: as §2
# [16] = tested on: Acinetobacter baumannii ATCC-BAA-1605; experiment: MIC on Acinetobacter baumannii strains; type: cell-based; settings: ATCCBAA1605, ATCC-BAA-1605, read-out: MIC
# Excerpt: as §2
# [17] = tested on: Acinetobacter baumannii ATCC-BAA-1789; experiment: MIC on Acinetobacter baumannii strains; type: cell-based; settings: ATCCBAA1789
# Excerpt: as §2
# [18] = tested on: Acinetobacter baumannii ATCC-BAA-1790; experiment: MIC on Acinetobacter baumannii strains; type: cell-based; settings: ATCCBAA1790
# Excerpt: as §2
# [19] = tested on: Acinetobacter baumannii ATCC-BAA-1791; experiment: MIC on Acinetobacter baumannii strains; type: cell-based; settings: ATCCBAA1791
# Excerpt: as §2
# [20] = tested on: Acinetobacter baumannii ATCC-BAA-1792; experiment: MIC on Acinetobacter baumannii strains; type: cell-based; settings: ATCCBAA1792
# Excerpt: as §2
# [21] = tested on: Acinetobacter baumannii ATCC-BAA-1793; experiment: MIC on Acinetobacter baumannii strains; type: cell-based; settings: ATCCBAA1793
# Excerpt: as §2
# [22] = tested on: Acinetobacter baumannii ATCC-BAA-1794; experiment: MIC on Acinetobacter baumannii strains; type: cell-based; settings: ATCCBAA1794
# Excerpt: as §2
# [23] = tested on: Acinetobacter baumannii ATCC-BAA-1795; experiment: MIC on Acinetobacter baumannii strains; type: cell-based; settings: ATCCBAA1795
# Excerpt: as §2
# [24] = tested on: Acinetobacter baumannii ATCC-BAA-1799; experiment: MIC on Acinetobacter baumannii strains; type: cell-based; settings: ATCCBAA1799
# Excerpt: as §2
# [25] = tested on: Acinetobacter baumannii ATCC-BAA-1800; experiment: MIC on Acinetobacter baumannii strains; type: cell-based; settings: ATCCBAA1800
# Excerpt: as §2
# [26] = Acinetobacter baumannii C312, read-out: Minimum Inhibitory Concentration (MIC)
# [27] = Acinetobacter baumannii C315, read-out: Minimum Inhibitory Concentration (MIC)
# [28] = Acinetobacter baumannii C330, read-out: Minimum Inhibitory Concentration (MIC)
# [29] = Acinetobacter baumannii C403, read-out: Minimum Inhibitory Concentration (MIC)
smiles,measurement,setting,value
CC1(C)[C@H](NC(=O)/C(=N\O[C@@H](COc2ccc3c(c2)CN(C(=N)NCCN)C3)C(=O)O)c2csc(N)n2)C(=O)N1OS(=O)(=O)O [Compound 44],MIC,[1]; [26],1 µg/mL
same,MIC,[2]; [27],1 µg/mL
same,MIC,[3]; [28],1 µg/mL
same,MIC,[4]; [29],2 µg/mL
same,MIC,[5]; read-out: MIC,0.5 µg/mL
same,MIC,[6]; read-out: MIC,2 µg/mL
same,MIC,[7]; read-out: MIC,4 µg/mL
same,MIC,[8]; read-out: MIC,4 µg/mL
same,MIC,[9]; read-out: MIC,2 µg/mL
same,MIC,[10]; read-out: MIC,0.5 µg/mL
same,MIC,[11]; read-out: MIC,2 µg/mL
same,MIC,[12]; read-out: MIC,4 µg/mL
same,LOG10-of bacterial load,[13]; total dosage 20 mg/kg,6.80 ± 0.94
same,LOG10-of bacterial load,[13]; total dosage 60 mg/kg,2.40 ± 1.99
CC1(C)[C@H](NC(=O)/C(=N\O[C@@H](COc2ccc3c(c2)CN(C(=N)N(CCN)CCN)C3)C(=O)O)c2csc(N)n2)C(=O)N1OS(=O)(=O)O [Compound 45],MIC,[1]; [26],16 µg/mL
same,MIC,[2]; [27],16 µg/mL
same,MIC,[3]; [28],16 µg/mL
same,MIC,[4]; [29],16 µg/mL
same,MIC,[5]; read-out: MIC,0.25 µg/mL
same,MIC,[6]; read-out: MIC,16 µg/mL
same,MIC,[7]; read-out: MIC,16 µg/mL
same,MIC,[8]; read-out: MIC,> 16 µg/mL
same,MIC,[9]; read-out: MIC,16 µg/mL
same,MIC,[10]; read-out: MIC,4 µg/mL
same,MIC,[11]; read-out: MIC,16 µg/mL
same,MIC,[12]; read-out: MIC,> 16 µg/mL
CC1(C)[C@H](NC(=O)/C(=N\O[C@@H](COc2ccc3c(c2)CN(/C(=N\[C@@H]2CCCNC2)N[C@@H]2CCCNC2)C3)C(=O)O)c2csc(N)n2)C(=O)N1OS(=O)(=O)O [Compound 46],MIC,[1]; [26],4 µg/mL
same,MIC,[2]; [27],4 µg/mL
same,MIC,[3]; [28],4 µg/mL
same,MIC,[4]; [29],4 µg/mL
same,MIC,[5]; read-out: MIC,1 µg/mL
same,MIC,[6]; read-out: MIC,1 µg/mL
same,MIC,[7]; read-out: MIC,1 µg/mL
same,MIC,[8]; read-out: MIC,4 µg/mL
same,MIC,[9]; read-out: MIC,1 µg/mL
same,MIC,[10]; read-out: MIC,0.5 µg/mL
same,MIC,[11]; read-out: MIC,1 µg/mL
same,MIC,[12]; read-out: MIC,1 µg/mL
same,LOG10-of bacterial load,[13]; total dosage 20 mg/kg,3.13 ± 2.45
same,LOG10-of bacterial load,[13]; total dosage 60 mg/kg,0.34 ± 0.85
"C[C@@H](O)[C@H]1C(=O)N2C(C(=O)O)=C(S[C@@H]3CN[C@H](C(=O)N(C)C)C3)[C@H](C)[C@H]12 [Meropenem, reference compound]",MIC,P. aeruginosa ATCC 35151,≤ 0.125 µg/mL
same,MIC,E. coli ATCC 25922,≤ 0.125 µg/mL
same,MIC,[14],0.5 µg/mL
same,MIC,[15],2 µg/mL
same,MIC,[16],64 µg/mL
same,MIC,[17],64 µg/mL
same,MIC,[18],128 µg/mL
same,MIC,[19],64 µg/mL
same,MIC,[20],128 µg/mL
same,MIC,[21],> 128 µg/mL
same,MIC,[22],> 128 µg/mL
same,MIC,[23],4 µg/mL
same,MIC,[24],128 µg/mL
same,MIC,[25],> 128 µg/mL
same,MIC,[1]; [26],64 µg/mL
same,MIC,[2]; [27],64 µg/mL
same,MIC,[3]; [28],64 µg/mL
same,MIC,[4]; [29],64 µg/mL
same,MIC,[5]; read-out: MIC,0.5 µg/mL
same,MIC,[6]; read-out: MIC,16 µg/mL
same,MIC,[7]; read-out: MIC,32 µg/mL
same,MIC,[8]; read-out: MIC,32 µg/mL
same,MIC,[9]; read-out: MIC,4 µg/mL
same,MIC,[10]; read-out: MIC,1 µg/mL
same,MIC,[11]; read-out: MIC,4 µg/mL
same,MIC,[12]; read-out: MIC,32 µg/mL
"CN(C)c1cc(NC(=O)CNC(C)(C)C)c(O)c2c1C[C@H]1C[C@H]3[C@H](N(C)C)C(O)=C(C(N)=O)C(=O)[C@@]3(O)C(O)=C1C2=O [Tigecycline, reference compound]",MIC,"[1]; Acinetobacter baumannii, C312, read-out: Minimum Inhibitory Concentration (MIC)",1 µg/mL
same,MIC,"[2]; Acinetobacter baumannii, C315, read-out: Minimum Inhibitory Concentration (MIC)",1 µg/mL
same,MIC,"[3]; Acinetobacter baumannii, C330, read-out: Minimum Inhibitory Concentration (MIC)",1 µg/mL
same,MIC,"[4]; Acinetobacter baumannii, C403, read-out: Minimum Inhibitory Concentration (MIC)",1 µg/mL
same,MIC,[5],4 µg/mL
same,MIC,[6],16 µg/mL
same,MIC,[7],16 µg/mL
same,MIC,[8],> 16 µg/mL
same,MIC,[9],16 µg/mL
same,MIC,[10],8 µg/mL
same,MIC,[11],16 µg/mL
same,MIC,[12],16 µg/mL
